Reference: ChEMBL document CHEMBL5033996, “Design, Synthesis, and Bioactivity Evaluation of Dual-Target Inhibitors of Tubulin and Src Kinase Guided by Crystal Structure” (J Med Chem, 2021)

How the values were obtained:
[1] = Oral bioavailability in Sprague-Dawley rat at 5 mg/kg measured up to 24 hrs by LC/MS/MS analysis; format: ADME, organism-based; conditions: in vivo
[2] = target: Proto-oncogene tyrosine-protein kinase Src (Homo sapiens) (UniProt P12931); test: Inhibition of Src kinase phosphorylation at Tyr416/419 residue in human SK-OV-3 cells incubated for 24 hrs by Western blot analysis; format: cell-based
[3] = Intrinsic clearance in human liver microsomes; format: ADME, Microsome
[4] = Toxicity in C57 mouse at 10 mg/kg, po administered twice daily; format: organism-based; conditions: in vivo
[5] = Half life in human liver microsomes; format: ADME, Microsome
[6] = AUC (0 to t) in Sprague-Dawley rat at 5 mg/kg, po measured up to 24 hrs by LC/MS/MS analysis; format: ADME, organism-based; design: route oral, dose 5 mg/kg, time <=24; conditions: in vivo
[7] = Half life in Sprague-Dawley rat at 5 mg/kg, po measured up to 24 hrs by LC/MS/MS analysis; format: ADME, organism-based; conditions: in vivo
[8] = Cmax in Sprague-Dawley rat at 5 mg/kg, po measured up to 24 hrs by LC/MS/MS analysis; format: ADME, organism-based; design: route oral, dose 5 mg/kg, time <=24; conditions: in vivo
[9] = Tmax in Sprague-Dawley rat at 5 mg/kg, po measured up to 24 hrs by LC/MS/MS analysis; format: ADME, organism-based; conditions: in vivo
[10] = Clearance in Sprague-Dawley rat at 5 mg/kg, po measured up to 24 hrs by LC/MS/MS analysis; format: ADME, organism-based; conditions: in vivo
[11] = tested on: Ramos; test: Antiproliferative activity against human Ramos cells assessed as inhibition of cell proliferation measured after 72 hrs by MTT assay; format: functional, cell-based
[12] = target: Tubulin; test: Binding affinity to tubulin (unknown origin) assessed as dissociation constant by tryptophan based binding assay; format: protein-complex assay, Homo sapiens
[13] = target: Focal adhesion kinase 1 (Homo sapiens) (UniProt Q05397); test: Inhibition of FAK phosphorylation at […] residue in human SK-OV-3 cells incubated for 24 hrs by Western blot analysis; format: cell-based
[14] = tested on: SK-OV-3; test: Antiproliferative activity against human SK-OV-3 cells assessed as inhibition of cell proliferation measured after 72 hrs by MTT assay; format: functional, cell-based; conditions: SK-OV-3, 72 h
[15] = tested on: K562; test: Antiproliferative activity against human K562 cells assessed as inhibition of cell proliferation measured after 72 hrs by MTT assay; format: functional, cell-based; conditions: K562, 72 h
[16] = tested on: SK-OV-3; test: Induction of cell cycle arrest in human SK-OV-3 cells assessed as accumulation of cells at G0/G1 phase at 100 nM incubated for 24 hrs by PI staining based flow cytometry analysis (reference value: 49.60 %); format: functional
[17] = tested on: SK-OV-3; test: Induction of cell cycle arrest in human SK-OV-3 cells assessed as accumulation of cells at G2/M phase at 20 nM incubated for 24 hrs by PI staining based flow cytometry analysis (reference value: 28.94%); format: functional
[18] = tested on: SK-OV-3; test: Induction of cell cycle arrest in human SK-OV-3 cells assessed as accumulation of cells at G0/G1 phase at 10 nM incubated for 24 hrs by PI staining based flow cytometry analysis (reference value: 49.60 %); format: functional
[19] = tested on: SK-OV-3; test: Induction of cell cycle arrest in human SK-OV-3 cells assessed as accumulation of cells at G0/G1 phase at 20 nM incubated for 24 hrs by PI staining based flow cytometry analysis (reference value: 49.60 %); format: functional
[20] = tested on: SK-OV-3; test: Induction of cell cycle arrest in human SK-OV-3 cells assessed as accumulation of cells at G2/M phase at 10 nM incubated for 24 hrs by PI staining based flow cytometry analysis (reference value: 28.94%); format: functional
[21] = tested on: SK-OV-3; test: Induction of cell cycle arrest in human SK-OV-3 cells assessed as accumulation of cells at S phase at 20 nM incubated for 24 hrs by PI staining based flow cytometry analysis (reference value: 21.4 %); format: functional
[22] = Antitumor activity against mouse C26 cells xenografted in BALB/c mouse assessed as tumor growth inhibition at 10 mg/kg, po measured every 2 days for 10 days by vernier caliper analysis relative to control; format: functional; conditions: 240 h, time 10 day, read-out: TGI
[23] = tested on: SK-OV-3; test: Induction of cell cycle arrest in human SK-OV-3 cells assessed as accumulation of cells at S phase at 100 nM incubated for 24 hrs by PI staining based flow cytometry analysis (reference value: 21.4 %); format: functional
[24] = Antitumor activity against human SK-OV-3 cells xenografted in nude mouse assessed as tumor growth inhibition at 10 mg/kg, po measured every 3 days for 1 month by vernier caliper analysis relative to control; format: functional; conditions: SK-OV-3, po, 730 h, time 1 months, read-out: TGI
[25] = tested on: SK-OV-3; test: Induction of cell cycle arrest in human SK-OV-3 cells assessed as accumulation of cells at S phase at 10 nM incubated for 24 hrs by PI staining based flow cytometry analysis (reference value: 21.4 %); format: functional
[26] = Toxicity in mouse xenografted with human SK-OV-3 cells assessed as effect on body weight at 10 mg/kg, po administered for 30 days; format: organism-based; conditions: in vivo, 720 h, time 30 day
[27] = tested on: SK-OV-3; test: Induction of cell cycle arrest in human SK-OV-3 cells assessed as accumulation of cells at G2/M phase at 100 nM incubated for 24 hrs by PI staining based flow cytometry analysis (reference value: 28.94%); format: functional
[28] = Toxicity in BALB/c mouse xenografted with mouse C26 cells assessed as death at 10 mg/kg, po measured every 2 days for 10 days; format: organism-based; conditions: in vivo, 240 h, time 10 day
[29] = Toxicity in C57 mouse at 40 mg/kg, po administered twice daily; format: organism-based; conditions: in vivo

Proto-oncogene tyrosine-protein kinase Src (Homo sapiens), sequence (P12931 2-536 limits assumed): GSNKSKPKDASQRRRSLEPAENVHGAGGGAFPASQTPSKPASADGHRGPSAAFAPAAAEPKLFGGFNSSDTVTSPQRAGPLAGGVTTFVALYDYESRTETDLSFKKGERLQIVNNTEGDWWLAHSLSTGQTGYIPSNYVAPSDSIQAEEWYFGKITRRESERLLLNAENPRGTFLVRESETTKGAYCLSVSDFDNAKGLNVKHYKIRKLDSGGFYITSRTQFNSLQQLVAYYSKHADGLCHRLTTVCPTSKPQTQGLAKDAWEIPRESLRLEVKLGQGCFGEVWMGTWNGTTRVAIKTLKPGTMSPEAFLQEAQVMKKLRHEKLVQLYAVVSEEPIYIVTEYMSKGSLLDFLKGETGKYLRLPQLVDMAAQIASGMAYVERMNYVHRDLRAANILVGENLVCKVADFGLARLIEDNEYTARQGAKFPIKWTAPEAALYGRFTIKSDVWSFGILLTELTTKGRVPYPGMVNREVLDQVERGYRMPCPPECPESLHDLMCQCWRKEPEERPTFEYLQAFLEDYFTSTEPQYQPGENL
Focal adhesion kinase 1 (Homo sapiens), sequence (Q05397 2-1052 limits assumed): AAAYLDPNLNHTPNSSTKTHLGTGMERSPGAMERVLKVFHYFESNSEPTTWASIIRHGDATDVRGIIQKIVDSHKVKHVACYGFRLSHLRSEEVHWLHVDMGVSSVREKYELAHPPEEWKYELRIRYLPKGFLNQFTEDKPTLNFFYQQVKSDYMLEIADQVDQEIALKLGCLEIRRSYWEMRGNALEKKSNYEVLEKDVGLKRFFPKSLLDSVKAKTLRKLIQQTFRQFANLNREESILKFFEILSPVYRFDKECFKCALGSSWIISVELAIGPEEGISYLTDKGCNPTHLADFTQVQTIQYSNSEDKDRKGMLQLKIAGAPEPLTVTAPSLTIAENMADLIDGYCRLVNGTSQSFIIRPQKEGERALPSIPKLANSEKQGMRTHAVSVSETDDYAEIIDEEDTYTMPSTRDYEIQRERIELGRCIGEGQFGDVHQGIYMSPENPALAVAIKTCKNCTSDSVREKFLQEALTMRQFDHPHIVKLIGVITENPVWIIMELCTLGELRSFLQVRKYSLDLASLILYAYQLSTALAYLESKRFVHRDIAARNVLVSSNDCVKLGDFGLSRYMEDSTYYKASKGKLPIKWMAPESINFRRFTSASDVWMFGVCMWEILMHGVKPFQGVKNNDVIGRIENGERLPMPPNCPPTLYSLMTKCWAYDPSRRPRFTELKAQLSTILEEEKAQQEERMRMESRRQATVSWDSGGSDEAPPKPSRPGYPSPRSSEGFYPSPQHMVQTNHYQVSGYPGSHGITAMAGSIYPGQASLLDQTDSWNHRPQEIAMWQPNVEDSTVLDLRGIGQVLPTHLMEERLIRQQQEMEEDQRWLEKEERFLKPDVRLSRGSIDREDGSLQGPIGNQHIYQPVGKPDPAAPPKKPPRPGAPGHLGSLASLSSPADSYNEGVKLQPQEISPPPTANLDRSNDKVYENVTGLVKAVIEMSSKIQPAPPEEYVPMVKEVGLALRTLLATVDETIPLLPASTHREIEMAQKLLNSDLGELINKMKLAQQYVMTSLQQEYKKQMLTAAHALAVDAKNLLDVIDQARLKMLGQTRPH

bioavailability [1] [%]	CLH [3] [mL·min/g]	half-life [5] [min]	AUC(0-t) at 24 h [6] [ng·h/mL]	half-life [7] [min]	Cmax [8] [ng/mL]	Tmax [9] [min]	CL/F [10] [mL/min/kg]	IC50 [11] [nM]	Kd [12] [nM]	IC50 [14] [nM]	IC50 [15] [nM]	Compound	inhibition [2]	inhibition [13]	inhibition in vivo at 10 mg/kg [22] [%]	also measured
79.9	26.6	52.1	4180	305	742	42	25.8	1.6	300	0.6	1.4	O=C(Cc1ccc(-c2ccc(OCCN3CCN(C(=O)[C@@H]4C[C@@H]4F)CC3)cc2)cn1)NCc1ccccc1	Dose-Dependent Effect	Dose-Dependent Effect	–	Activity [4]: Toxic
34.9	31.4	44.1	840	740	431	15	88.5	15.7	1110	6.8	18.2	O=C(Cc1ccc(-c2ccc(OCCN3CCOCC3)cc2)cn1)NCc1ccccc1 [TIRBANIBULIN]	–	–	51	Activity [16]: 15.39%; Activity [17]: 40.35%; Activity [18]: 46.66%; Activity [19]: 40.07%; Activity [20]: 34.01%; Activity [21]: 19.58%; Activity [23]: 20.2%; inhibition in vivo at 10 mg/kg [24]: 42%; Activity [25]: 19.33%; Activity [26]: Non-Toxic; Activity [27]: 64.41%

Compound	bioavailability [1] [%]	CLH [3] [mL·min/g]	half-life [5] [min]	AUC(0-t) at 24 h [6] [ng·h/mL]	half-life [7] [min]	Cmax [8] [ng/mL]	Tmax [9] [min]	CL/F [10] [mL/min/kg]	IC50 [11] [nM]	Kd [12] [nM]	IC50 [14] [nM]	IC50 [15] [nM]	inhibition [2]	inhibition [13]	inhibition in vivo at 10 mg/kg [22] [%]	also measured
O=C(Cc1ccc(-c2ccc(OCCN3CCN(C(=O)C4CC4)CC3)cc2)cn1)NCc1ccccc1	52.2	36	38.5	1620	158	593	49.8	55.7	1.3	290	1.1	2.5	Dose-Dependent Effect	Dose-Dependent Effect	73	Activity [28]: Toxic; Activity [29]: Non-Toxic
